# From US8557839B2, “Fused ring azadecalin glucocorticoid receptor modulators” (Corcept Therapeutics, Inc., priority 2004, dated 2013)
# What was measured:
# [1] = molecular target: T1, glucocorticoid receptors (Homo sapiens, UniProt P04150); experiment: GR functional assay using SW1353/MMTV-5 cells (dexamethasone-induced luciferase); format: cell-based; parameters: contains endogenous glucocorticoid receptors; endogenous in cells; host or cells: SW1353/MMTV-5 (human chondrosarcoma, stably carrying the pMAMneo-Luc reporter); settings: read-out: GR Functional
# T1 sequence (P04150 1-777): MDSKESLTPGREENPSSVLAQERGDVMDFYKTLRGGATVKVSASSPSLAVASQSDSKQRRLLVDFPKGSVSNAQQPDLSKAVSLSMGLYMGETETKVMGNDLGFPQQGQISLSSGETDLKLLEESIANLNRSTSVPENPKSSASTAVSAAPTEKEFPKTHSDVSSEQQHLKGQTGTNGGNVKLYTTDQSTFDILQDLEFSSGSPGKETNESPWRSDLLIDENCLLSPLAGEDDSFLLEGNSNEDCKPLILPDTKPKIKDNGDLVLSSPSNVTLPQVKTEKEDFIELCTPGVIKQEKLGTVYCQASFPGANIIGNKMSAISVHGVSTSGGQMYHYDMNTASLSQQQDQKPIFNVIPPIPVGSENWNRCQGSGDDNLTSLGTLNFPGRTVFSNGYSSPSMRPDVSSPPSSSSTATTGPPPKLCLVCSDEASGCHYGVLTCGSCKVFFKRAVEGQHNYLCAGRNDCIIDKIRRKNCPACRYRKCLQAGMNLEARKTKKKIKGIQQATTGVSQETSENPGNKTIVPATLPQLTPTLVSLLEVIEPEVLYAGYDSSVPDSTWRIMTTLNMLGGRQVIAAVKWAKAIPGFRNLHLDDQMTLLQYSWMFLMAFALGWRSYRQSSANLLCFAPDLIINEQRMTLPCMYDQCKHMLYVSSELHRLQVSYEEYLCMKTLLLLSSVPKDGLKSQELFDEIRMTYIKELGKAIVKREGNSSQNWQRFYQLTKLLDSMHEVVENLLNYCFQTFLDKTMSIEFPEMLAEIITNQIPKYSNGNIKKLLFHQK
# Description: SW1353/MMTV-5 is an adherent human chondrosarcoma cell line that contains endogenous glucocorticoid receptors. It was transfected with a plasmid (pMAMneo-Luc) encoding firefly luciferase located behind a glucocorticoid-responsive element (GRE) derived from a viral promoter (long terminal repeat of mouse mammary tumor virus). A stable cell line SW1353/MMTV-5 was selected with geneticin, which was required to maintain this plasmid.
# SW1353/MMTV-5 cells were distributed in 96-well plates and incubated in medium (without geneticin) for 24 hrs (in the absence of CO2).
# [2] = molecular target: T1, glucocorticoid receptors; experiment: Glucocorticoid receptor binding displacement assay with 3H-dexamethasone; parameters: This GR was a full-length steroid hormone receptor; host or cells: recombinant baculovirus-infected insect cells; settings: Ki from IC50 by Cheng-Prusoff; 2.5 nM 3H-dexamethasone; read-out: GR Binding
# Description: The source of the receptor was recombinant baculovirus-infected insect cells. This GR was a full-length steroid hormone receptor likely to be associated with heat-shock and other endogenous proteins.
# For the Primary Screen, test compounds were tested at 1 μM in duplicate. These compounds were diluted from 10 mM stock in 100% DMSO. After dilution to 100 μM, 5 μl were added to 245 μl assay buffer to obtained 2 μM compound and 2% DMSO.
# For the IC50 determinations, test compounds were tested at 6 concentrations in duplicate (concentration range depends on % inhibition binding that was obtained in the Primary Screen). Test compounds were diluted from 10 mM stock in 100% DMSO. The tested solutions were prepared at 2× final assay concentration in 2% DMSO/assay buffer.
# All reagents and the assay plate were kept on ice during the addition of reagents. […] After the additions, the incubation mixture was mixed and incubated for 2.5 hrs at 4° C.
# After 2.5 hrs incubation, unbound counts were removed with dextran coated charcoal (DCC) as follows: 25 μl of DCC solution (10% DCC in assay buffer) was added to all wells and mixed (total volume 225 μl). The plate was centrifuged at 4000 rpm for 10 minutes at 4° C. 75 μl of the supernatants (i.e.⅓ of total volume) was carefully pipetted into an optiplate. 200 μl of scintillation cocktail were added (Microscint-40, Packard Bioscience. B.V.). The plate was vigorously shaken for approx. 10 minutes and counted on Topcount.
# The IC50 values were converted to Ki (the inhibition constant) using the Cheng-Prusoff equation.
# Reagents: Assay buffer: 10 mM potassium phosphate buffer pH 7.6 containing 5 mM DTT, 10 mM sodium molybdate, 100 μM EDTA and 0.1% BSA.
SMILES,Ki [1],Ki [2]
C[C@]12Cc3cnn(-c4ccc(F)cc4)c3C=C1CCN(S(=O)(=O)N1CCCCC1)C2,> 100 nM,10 to 100 nM
CC(C)(C)c1ccc(S(=O)(=O)N2CCC3=Cc4c(cnn4-c4ccncc4)C[C@]3(C)C2)cc1,> 100 nM,< 10 nM
C[C@]12Cc3cnn(-c4ccc(F)cc4)c3C=C1CCN(S(=O)(=O)c1ccc(N)cc1)C2,> 100 nM,10 to 100 nM
CC(C)(C)S(=O)(=O)N1CCC2=Cc3c(cnn3-c3ccc(F)cc3)C[C@]2(C)C1,> 100 nM,> 100 nM
CC(C)n1ncc2c1C=C1CCN(S(=O)(=O)c3ccc(C(C)(C)C)cc3)C[C@@]1(CN(C)C)C2,> 100 nM,10 to 100 nM
CC(C)n1ncc2c1C=C1CCN(S(=O)(=O)c3ccc(C(C)(C)C)cc3)C[C@@]1(CN1CCCCC1)C2,10 to 100 nM,< 10 nM
Cc1ccccc1S(=O)(=O)N1CCC2=Cc3c(cnn3-c3ccc(F)cc3)C[C@]2(CN2CCOCC2)C1,10 to 100 nM,< 10 nM
O=S(=O)(c1ccccc1F)N1CCC2=Cc3c(cnn3-c3ccc(F)cc3)C[C@]2(CN2CCOCC2)C1,10 to 100 nM,< 10 nM
CC(C)(C)c1ccc(S(=O)(=O)N2CC[C@H]3Cc4c(cnn4-c4ccc(F)cc4)C[C@]3(CO)C2)cc1,> 100 nM,> 100 nM
COC[C@]12Cc3cnn(-c4ccc(F)cc4)c3C[C@@H]1CCN(S(=O)(=O)c1ccc(C(C)(C)C)cc1)C2,> 100 nM,< 10 nM
COCCOC[C@]12Cc3cnn(-c4ccc(F)cc4)c3C[C@@H]1CCN(S(=O)(=O)c1ccc(C(C)(C)C)cc1)C2,< 10 nM,< 10 nM
COCCOC[C@]12Cc3cnn(-c4ccc(F)cc4)c3C[C@@H]1CCN(S(=O)(=O)c1ccccc1)C2,10 to 100 nM,< 10 nM
COC[C@]12Cc3cnn(-c4ccc(F)cc4)c3C[C@@H]1CCN(S(=O)(=O)c1ccccc1)C2,> 100 nM,10 to 100 nM
CC(C)(C)c1ccc(S(=O)(=O)N2CCC3=Cc4c(cnn4-c4ccc(F)cc4)C[C@]3(C(=O)NCc3ccccc3)C2)cc1,> 100 nM,10 to 100 nM
CC(C)(C)c1ccc(S(=O)(=O)N2CCC3=Cc4c(cnn4-c4ccc(F)cc4)C[C@]3(C(=O)N3CCOCC3)C2)cc1,> 100 nM,10 to 100 nM
CC(C)(C)c1ccc(S(=O)(=O)N2CCC3=Cc4c(cnn4-c4ccc(F)cc4)C[C@]3(C(=O)N3CCCCC3)C2)cc1,> 100 nM,< 10 nM
CC(C)(C)c1ccc(S(=O)(=O)N2CCC3=Cc4c(cnn4-c4ccc(F)cc4)C[C@]3(C(=O)N3CCCC3)C2)cc1,10 to 100 nM,< 10 nM
CCNC(=O)[C@]12Cc3cnn(-c4ccc(F)cc4)c3C=C1CCN(S(=O)(=O)c1ccc(C(C)(C)C)cc1)C2,> 100 nM,< 10 nM
CN(C)C(=O)[C@]12Cc3cnn(-c4ccc(F)cc4)c3C=C1CCN(S(=O)(=O)c1ccc(C(C)(C)C)cc1)C2,> 100 nM,10 to 100 nM
CC(O)[C@]12Cc3cnn(-c4ccc(F)cc4)c3C=C1CCN(S(=O)(=O)c1ccc(C(C)(C)C)cc1)C2 (stereo partly shown),10 to 100 nM,< 10 nM
CCC(O)[C@]12Cc3cnn(-c4ccc(F)cc4)c3C=C1CCN(S(=O)(=O)c1ccc(C(C)(C)C)cc1)C2 (stereo partly shown),10 to 100 nM,< 10 nM
CC(C)(C)c1ccc(S(=O)(=O)N2CCC3=Cc4c(cnn4-c4ccc(F)cc4)C[C@]3(C(O)c3ccccc3)C2)cc1 (stereo partly shown),> 100 nM,10 to 100 nM
CC(C)(C)c1ccc(S(=O)(=O)N2CCC3=Cc4c(cnn4-c4ccc(F)cc4)C[C@]3(C(=O)c3ccccc3)C2)cc1,< 10 nM,< 10 nM
CCCCn1ncc2c1C=C1CCN(S(=O)(=O)c3ccc(C)cc3)C[C@@]1(C(=O)OC)C2,> 100 nM,> 100 nM

SMILES,Ki [1],Ki [2]
COC(=O)C[C@]12Cc3cnn(-c4ccc(F)cc4)c3C=C1CCN(S(=O)(=O)c1ccc(C(C)(C)C)cc1)C2,10 to 100 nM,< 10 nM
CC(C)(C)c1ccc(S(=O)(=O)N2CCC3=Cc4c(cnn4-c4ccc(F)cc4)C[C@]3(CCO)C2)cc1,10 to 100 nM,< 10 nM
COCC[C@]12Cc3cnn(-c4ccc(F)cc4)c3C=C1CCN(S(=O)(=O)c1ccc(C(C)(C)C)cc1)C2,< 10 nM,< 10 nM
CN(C)CC[C@]12Cc3cnn(-c4ccc(F)cc4)c3C=C1CCN(S(=O)(=O)c1ccc(C(C)(C)C)cc1)C2,10 to 100 nM,10 to 100 nM
CC(C)(C)c1ccc(S(=O)(=O)N2CCC3=Cc4c(cnn4-c4ccc(F)cc4)C[C@]3(CCN3CCCC3)C2)cc1,10 to 100 nM,10 to 100 nM
CC(C)(C)c1ccc(S(=O)(=O)N2CC[C@H]3Cc4c(cnn4-c4ccc(F)cc4)C[C@]3(CN3CCOCC3)C2)cc1,10 to 100 nM,< 10 nM
O=S(=O)(c1ccccc1)N1CCC2=Cc3c(cnn3-c3ccc(F)cc3)CC2(Cc2ccc(F)cc2)C1 (stereo not shown),10 to 100 nM,< 10 nM
Cc1ccc(S(=O)(=O)N2CCC3=Cc4c(cnn4-c4ccc(F)cc4)CC3(Cc3ccc(F)cc3)C2)cc1 (stereo not shown),10 to 100 nM,< 10 nM
O=S(=O)(c1ccc(F)cc1)N1CCC2=Cc3c(cnn3-c3ccc(F)cc3)CC2(Cc2ccc(F)cc2)C1 (stereo not shown),10 to 100 nM,< 10 nM
CS(=O)(=O)N1CCC2=Cc3c(cnn3-c3ccc(F)cc3)CC2(Cc2ccc(F)cc2)C1 (stereo not shown),> 100 nM,10 to 100 nM
CC(C)S(=O)(=O)N1CCC2=Cc3c(cnn3-c3ccc(F)cc3)CC2(Cc2ccccc2)C1 (stereo not shown),> 100 nM,> 100 nM
Cn1cnc(S(=O)(=O)N2CCC3=Cc4c(cnn4-c4ccc(F)cc4)CC3(Cc3ccc(F)cc3)C2)c1 (stereo not shown),> 100 nM,< 10 nM
CN1CCOc2cc(S(=O)(=O)N3CCC4=Cc5c(cnn5-c5ccc(F)cc5)CC4(Cc4ccc(F)cc4)C3)ccc21 (stereo not shown),< 10 nM,< 10 nM
O=S(=O)(c1ccc(N2CCOCC2)nc1)N1CCC2=Cc3c(cnn3-c3ccc(F)cc3)CC2(Cc2ccc(F)cc2)C1 (stereo not shown),10 to 100 nM,< 10 nM
CC(C)(C)c1ccc(CN2CCC3=Cc4c(cnn4-c4ccc(F)cc4)CC3(Cc3ccc(F)cc3)C2)cn1 (stereo not shown),> 100 nM,< 10 nM
CCCN1CCC2=Cc3c(cnn3-c3ccc(F)cc3)CC2(Cc2ccc(F)cc2)C1 (stereo not shown),> 100 nM,10 to 100 nM
Fc1ccc(-n2ncc3c2C=C2CCN(Cc4c[nH]cn4)CC2(Cc2ccccc2)C3)cc1 (stereo not shown),> 100 nM,> 100 nM
Fc1ccc(-n2ncc3c2C=C2CCN(Cc4ccncc4)CC2(Cc2ccccc2)C3)cc1 (stereo not shown),> 100 nM,10 to 100 nM
O=C(Nc1ccccc1)N1CCC2=Cc3c(cnn3-c3ccc(F)cc3)CC2(Cc2ccc(F)cc2)C1 (stereo not shown),10 to 100 nM,< 10 nM
CN1CCN(S(=O)(=O)N2CCC3=Cc4c(cnn4-c4ccc(F)cc4)CC3(Cc3ccc(F)cc3)C2)CC1 (stereo not shown),> 100 nM,10 to 100 nM
O=S(=O)(N1CCCCC1)N1CCC2=Cc3c(cnn3-c3ccc(F)cc3)CC2(Cc2ccc(F)cc2)C1 (stereo not shown),> 100 nM,10 to 100 nM
CN(C)C(=O)CN1CCC2=Cc3c(cnn3-c3ccc(F)cc3)CC2(Cc2ccccc2)C1 (stereo not shown),> 100 nM,> 100 nM
COCCOC[C@]12Cc3cnn(C4CCCC4)c3C=C1CCN(S(=O)(=O)c1ccc(C)cc1)C2,10 to 100 nM,< 10 nM
